These results are taken from article PMC9927415, “Tyrosine Kinase Inhibitors Display Potent Activity against Cryptosporidium parvum” (Microbiology Spectrum, 2022).

What all share (test): KINOMEscan competitive binding
One assay has as its target T1, JAK1(JH2) (Homo sapiens, UniProt P23458).
T1 construct: JAK1(JH2); purchased DiscoverX (KINOMEscan)
A digest of the protocol:
(§1)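 Kinases expressed as T7 bacteriophage fusions; test compound competes with an immobilized ATP-site probe ligand. Kinase still bound to the solid support was quantified and expressed as percentage inhibition.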

The next assay addresses T2, CDK5 (Homo sapiens, UniProt Q00535).
T2 construct: purchased DiscoverX (KINOMEscan)
Put shortly: as §1

The target in a further assay is T3, TTK (Homo sapiens, UniProt P33981).
T3 construct: purchased DiscoverX (KINOMEscan)
T3 sequence (P33981 1-857): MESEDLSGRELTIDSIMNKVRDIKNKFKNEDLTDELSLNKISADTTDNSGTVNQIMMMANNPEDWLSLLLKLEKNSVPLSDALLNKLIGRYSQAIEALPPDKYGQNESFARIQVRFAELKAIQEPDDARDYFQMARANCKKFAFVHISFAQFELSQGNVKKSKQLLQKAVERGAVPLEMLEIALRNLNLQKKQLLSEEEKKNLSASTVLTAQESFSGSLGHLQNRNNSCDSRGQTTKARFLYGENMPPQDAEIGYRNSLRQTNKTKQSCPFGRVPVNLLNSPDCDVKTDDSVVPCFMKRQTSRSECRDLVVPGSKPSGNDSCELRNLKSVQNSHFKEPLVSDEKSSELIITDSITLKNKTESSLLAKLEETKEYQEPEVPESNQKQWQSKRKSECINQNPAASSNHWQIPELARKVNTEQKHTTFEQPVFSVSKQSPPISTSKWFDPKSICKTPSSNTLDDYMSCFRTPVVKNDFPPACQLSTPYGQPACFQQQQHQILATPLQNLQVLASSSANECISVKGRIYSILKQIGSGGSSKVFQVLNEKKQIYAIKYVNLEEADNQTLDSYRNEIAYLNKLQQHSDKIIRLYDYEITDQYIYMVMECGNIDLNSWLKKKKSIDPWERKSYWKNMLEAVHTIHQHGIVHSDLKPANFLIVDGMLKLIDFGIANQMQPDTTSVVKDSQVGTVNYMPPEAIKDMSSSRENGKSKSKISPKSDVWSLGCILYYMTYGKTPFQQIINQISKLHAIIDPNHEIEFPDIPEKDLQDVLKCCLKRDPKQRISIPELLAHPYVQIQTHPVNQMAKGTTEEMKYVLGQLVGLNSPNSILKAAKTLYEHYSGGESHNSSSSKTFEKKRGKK
A digest of the protocol: as §1

The target in a further assay is T4, KIT (Homo sapiens, UniProt P10721).
T4 construct: purchased DiscoverX (KINOMEscan)
A digest of the protocol: as §1

A further assay has as its target T5, FLT1 (Homo sapiens, UniProt P17948).
T5 construct: purchased DiscoverX (KINOMEscan)
The settings on record: for inhibition at 10 µM: n=1, kinase FLT1, read-out: Percent inhibition FLT1. Put shortly:
as §1

A further assay deals with T6, EGFR (Homo sapiens, UniProt P00533).
T6 construct: purchased DiscoverX (KINOMEscan)
Put shortly:
as §1

Another assay has as its target T7, ROS1 (Homo sapiens, UniProt P08922).
T7 construct: purchased DiscoverX (KINOMEscan)
The settings on record: n=1, read-out: Percent inhibition, ROS1.

A further assay addresses T8, PAK7/PAK5 (Homo sapiens, UniProt Q9P286).
T8 construct: purchased DiscoverX (KINOMEscan)
The settings on record: n=1, read-out: Percent inhibition, PAK7/PAK5.

A further assay has as its target T9, PKMYT1 (Homo sapiens, UniProt Q99640).
T9 construct: purchased DiscoverX (KINOMEscan)
T9 sequence (Q99640 1-499): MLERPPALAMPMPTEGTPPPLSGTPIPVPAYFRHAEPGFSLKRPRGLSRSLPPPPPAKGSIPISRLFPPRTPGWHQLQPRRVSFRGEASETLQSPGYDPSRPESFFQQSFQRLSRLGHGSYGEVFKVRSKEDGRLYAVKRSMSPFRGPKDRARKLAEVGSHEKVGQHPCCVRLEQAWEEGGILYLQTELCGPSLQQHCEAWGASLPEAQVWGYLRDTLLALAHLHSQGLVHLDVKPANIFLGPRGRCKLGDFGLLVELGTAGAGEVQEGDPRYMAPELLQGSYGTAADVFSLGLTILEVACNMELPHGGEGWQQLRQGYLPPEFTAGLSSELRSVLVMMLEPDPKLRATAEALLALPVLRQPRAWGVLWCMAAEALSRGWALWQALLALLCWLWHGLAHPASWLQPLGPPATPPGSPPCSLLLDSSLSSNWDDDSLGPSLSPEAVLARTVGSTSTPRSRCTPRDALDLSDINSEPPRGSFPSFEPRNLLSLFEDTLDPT
The settings on record: n=1, read-out: Percent inhibition, PKMYT1.

Another assay has as its target T10, STK16 (Homo sapiens, UniProt O75716).
T10 construct: purchased DiscoverX (KINOMEscan)
The settings on record: n=1, read-out: Percent inhibition, STK16.

Where [1] appears, read: 10 µM, n=1, kinase JAK1(Kin.Dom.1), read-out: Percent inhibition JAK1(Kin.Dom.1).
Where [2] appears, read: 10 μM, n = 1, read-out: percent inhibition CDK5.
The mark [3] stands for this setting: 10 µM, n=1, kinase CDK5, read-out: Percent inhibition CDK5.
Setting [4] is: KINOMEscan, 10 µM, n=1, read-out: Percent inhibition, TTK.
The mark [5] stands for this setting: 10 µM, n=1, kinase KIT, read-out: Percent inhibition KIT.
Setting [6] is: 10 µM, n=1, kinase EGFR, read-out: Percent inhibition EGFR.
[7] abbreviates: 10 μM, n = 1, read-out: percent inhibition KIT.

Where two headings read alike, the source gives them in different places.

T2 sequence (Q00535 whole entry): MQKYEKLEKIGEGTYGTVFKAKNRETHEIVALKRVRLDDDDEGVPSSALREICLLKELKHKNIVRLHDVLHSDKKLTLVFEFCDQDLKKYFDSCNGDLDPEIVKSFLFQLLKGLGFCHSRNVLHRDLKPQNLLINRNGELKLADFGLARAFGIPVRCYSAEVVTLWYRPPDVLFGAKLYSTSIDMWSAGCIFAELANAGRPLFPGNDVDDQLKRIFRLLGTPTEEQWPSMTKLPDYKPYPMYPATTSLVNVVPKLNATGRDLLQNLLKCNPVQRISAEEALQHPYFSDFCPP
T1 sequence (P23458 583-855 limits assumed): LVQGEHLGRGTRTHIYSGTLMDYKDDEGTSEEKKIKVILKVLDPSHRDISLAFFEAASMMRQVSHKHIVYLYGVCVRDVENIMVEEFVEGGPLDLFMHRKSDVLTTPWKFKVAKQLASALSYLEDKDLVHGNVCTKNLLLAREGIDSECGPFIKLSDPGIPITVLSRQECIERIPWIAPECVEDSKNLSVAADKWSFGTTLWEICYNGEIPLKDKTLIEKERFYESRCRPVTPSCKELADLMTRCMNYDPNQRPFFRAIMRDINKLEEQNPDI
T5 sequence (P17948 27-1338): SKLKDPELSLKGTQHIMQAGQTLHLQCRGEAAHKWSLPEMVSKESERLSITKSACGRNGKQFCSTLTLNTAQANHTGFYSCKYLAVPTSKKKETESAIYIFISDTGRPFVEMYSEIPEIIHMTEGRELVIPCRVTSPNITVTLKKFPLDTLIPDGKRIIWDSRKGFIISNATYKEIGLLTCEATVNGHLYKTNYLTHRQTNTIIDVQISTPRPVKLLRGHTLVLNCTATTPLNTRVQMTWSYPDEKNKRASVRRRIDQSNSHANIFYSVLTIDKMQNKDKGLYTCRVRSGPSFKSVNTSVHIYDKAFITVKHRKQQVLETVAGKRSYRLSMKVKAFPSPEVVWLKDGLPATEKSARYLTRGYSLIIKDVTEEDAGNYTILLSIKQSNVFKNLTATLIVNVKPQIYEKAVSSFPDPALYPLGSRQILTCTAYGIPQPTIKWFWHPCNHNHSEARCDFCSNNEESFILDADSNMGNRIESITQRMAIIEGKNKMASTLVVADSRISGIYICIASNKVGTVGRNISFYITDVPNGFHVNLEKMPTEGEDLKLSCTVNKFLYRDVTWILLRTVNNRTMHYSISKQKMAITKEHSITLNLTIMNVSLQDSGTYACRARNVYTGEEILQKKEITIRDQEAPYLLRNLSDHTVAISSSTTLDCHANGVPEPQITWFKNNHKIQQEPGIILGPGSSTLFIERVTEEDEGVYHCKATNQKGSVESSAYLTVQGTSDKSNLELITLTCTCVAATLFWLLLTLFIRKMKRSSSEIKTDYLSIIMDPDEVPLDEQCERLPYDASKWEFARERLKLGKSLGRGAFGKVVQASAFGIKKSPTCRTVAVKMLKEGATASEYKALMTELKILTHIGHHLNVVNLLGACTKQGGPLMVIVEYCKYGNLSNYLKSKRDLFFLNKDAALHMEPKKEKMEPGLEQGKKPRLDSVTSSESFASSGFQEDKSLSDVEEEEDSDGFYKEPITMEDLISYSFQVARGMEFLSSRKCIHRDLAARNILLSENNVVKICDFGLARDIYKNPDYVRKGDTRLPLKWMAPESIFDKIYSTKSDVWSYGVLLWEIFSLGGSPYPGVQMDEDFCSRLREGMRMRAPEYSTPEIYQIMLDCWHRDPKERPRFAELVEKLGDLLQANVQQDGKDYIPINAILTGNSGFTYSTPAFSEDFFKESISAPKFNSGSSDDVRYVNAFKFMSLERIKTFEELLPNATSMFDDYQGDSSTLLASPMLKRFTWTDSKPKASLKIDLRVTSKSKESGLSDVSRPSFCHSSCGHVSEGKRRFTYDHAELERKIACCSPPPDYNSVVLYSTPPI
T10 sequence (O75716 whole entry): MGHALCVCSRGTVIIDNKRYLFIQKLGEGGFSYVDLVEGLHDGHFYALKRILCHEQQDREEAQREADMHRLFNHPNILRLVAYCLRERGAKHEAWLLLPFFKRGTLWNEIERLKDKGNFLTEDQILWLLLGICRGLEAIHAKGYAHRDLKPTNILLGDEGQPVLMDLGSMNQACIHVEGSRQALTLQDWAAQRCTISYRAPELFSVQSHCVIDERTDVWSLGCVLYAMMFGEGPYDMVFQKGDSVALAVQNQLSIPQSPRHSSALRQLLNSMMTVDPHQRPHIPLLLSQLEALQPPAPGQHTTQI
T4 sequence (P10721 26-976): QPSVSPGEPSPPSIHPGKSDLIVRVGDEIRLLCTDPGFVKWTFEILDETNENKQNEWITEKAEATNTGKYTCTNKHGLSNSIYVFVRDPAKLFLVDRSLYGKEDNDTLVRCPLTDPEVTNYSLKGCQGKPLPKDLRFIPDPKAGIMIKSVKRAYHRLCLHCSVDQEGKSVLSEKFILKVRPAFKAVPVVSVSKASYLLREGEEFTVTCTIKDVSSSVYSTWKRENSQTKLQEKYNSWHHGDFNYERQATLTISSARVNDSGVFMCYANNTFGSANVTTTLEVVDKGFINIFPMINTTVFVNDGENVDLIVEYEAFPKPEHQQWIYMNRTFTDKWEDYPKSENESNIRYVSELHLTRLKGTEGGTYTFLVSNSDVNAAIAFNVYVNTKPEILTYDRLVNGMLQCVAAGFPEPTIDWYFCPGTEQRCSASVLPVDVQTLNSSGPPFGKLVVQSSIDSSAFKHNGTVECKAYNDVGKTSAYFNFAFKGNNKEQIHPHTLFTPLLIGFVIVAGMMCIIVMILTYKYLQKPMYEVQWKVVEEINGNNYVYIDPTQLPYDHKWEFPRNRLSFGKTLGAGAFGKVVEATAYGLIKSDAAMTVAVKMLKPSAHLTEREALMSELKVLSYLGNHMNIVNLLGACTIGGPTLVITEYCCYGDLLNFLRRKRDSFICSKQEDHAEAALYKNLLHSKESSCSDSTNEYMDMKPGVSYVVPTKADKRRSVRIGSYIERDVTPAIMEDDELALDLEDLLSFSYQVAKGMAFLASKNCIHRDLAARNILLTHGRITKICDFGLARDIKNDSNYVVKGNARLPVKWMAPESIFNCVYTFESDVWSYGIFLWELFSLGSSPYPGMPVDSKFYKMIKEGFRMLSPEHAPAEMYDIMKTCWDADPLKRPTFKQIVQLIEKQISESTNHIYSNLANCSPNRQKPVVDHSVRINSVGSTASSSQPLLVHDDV
T6 sequence (P00533 25-1210): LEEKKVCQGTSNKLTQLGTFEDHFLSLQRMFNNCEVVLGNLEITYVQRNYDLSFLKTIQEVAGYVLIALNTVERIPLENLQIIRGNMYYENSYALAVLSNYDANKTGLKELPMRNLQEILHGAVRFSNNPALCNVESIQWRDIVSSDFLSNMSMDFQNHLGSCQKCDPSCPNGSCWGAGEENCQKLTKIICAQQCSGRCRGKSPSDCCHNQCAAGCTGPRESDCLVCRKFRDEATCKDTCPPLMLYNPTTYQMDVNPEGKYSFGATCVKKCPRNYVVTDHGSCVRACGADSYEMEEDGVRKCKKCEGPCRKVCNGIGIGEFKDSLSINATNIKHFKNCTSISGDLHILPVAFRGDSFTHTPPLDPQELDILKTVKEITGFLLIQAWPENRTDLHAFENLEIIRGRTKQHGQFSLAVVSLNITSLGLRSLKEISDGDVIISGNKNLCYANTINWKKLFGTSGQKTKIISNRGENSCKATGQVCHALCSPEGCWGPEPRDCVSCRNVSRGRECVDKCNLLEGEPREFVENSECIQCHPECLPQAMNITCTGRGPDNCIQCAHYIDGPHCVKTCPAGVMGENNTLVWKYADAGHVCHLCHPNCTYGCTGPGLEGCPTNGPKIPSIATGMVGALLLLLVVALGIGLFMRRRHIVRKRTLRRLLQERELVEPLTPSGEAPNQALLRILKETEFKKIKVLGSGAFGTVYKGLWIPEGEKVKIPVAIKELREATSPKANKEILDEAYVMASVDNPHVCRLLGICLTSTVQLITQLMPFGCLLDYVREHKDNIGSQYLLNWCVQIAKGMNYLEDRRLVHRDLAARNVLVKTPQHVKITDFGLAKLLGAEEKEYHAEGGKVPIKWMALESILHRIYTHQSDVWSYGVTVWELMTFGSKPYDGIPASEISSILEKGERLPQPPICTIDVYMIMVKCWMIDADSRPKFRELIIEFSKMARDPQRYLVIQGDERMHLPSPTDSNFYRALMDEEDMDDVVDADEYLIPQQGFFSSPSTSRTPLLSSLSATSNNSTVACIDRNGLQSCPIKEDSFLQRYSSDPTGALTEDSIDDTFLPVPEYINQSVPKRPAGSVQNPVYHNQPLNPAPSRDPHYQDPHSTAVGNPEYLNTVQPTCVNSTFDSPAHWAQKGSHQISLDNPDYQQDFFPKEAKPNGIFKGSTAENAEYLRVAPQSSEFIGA
T8 sequence (Q9P286 whole entry): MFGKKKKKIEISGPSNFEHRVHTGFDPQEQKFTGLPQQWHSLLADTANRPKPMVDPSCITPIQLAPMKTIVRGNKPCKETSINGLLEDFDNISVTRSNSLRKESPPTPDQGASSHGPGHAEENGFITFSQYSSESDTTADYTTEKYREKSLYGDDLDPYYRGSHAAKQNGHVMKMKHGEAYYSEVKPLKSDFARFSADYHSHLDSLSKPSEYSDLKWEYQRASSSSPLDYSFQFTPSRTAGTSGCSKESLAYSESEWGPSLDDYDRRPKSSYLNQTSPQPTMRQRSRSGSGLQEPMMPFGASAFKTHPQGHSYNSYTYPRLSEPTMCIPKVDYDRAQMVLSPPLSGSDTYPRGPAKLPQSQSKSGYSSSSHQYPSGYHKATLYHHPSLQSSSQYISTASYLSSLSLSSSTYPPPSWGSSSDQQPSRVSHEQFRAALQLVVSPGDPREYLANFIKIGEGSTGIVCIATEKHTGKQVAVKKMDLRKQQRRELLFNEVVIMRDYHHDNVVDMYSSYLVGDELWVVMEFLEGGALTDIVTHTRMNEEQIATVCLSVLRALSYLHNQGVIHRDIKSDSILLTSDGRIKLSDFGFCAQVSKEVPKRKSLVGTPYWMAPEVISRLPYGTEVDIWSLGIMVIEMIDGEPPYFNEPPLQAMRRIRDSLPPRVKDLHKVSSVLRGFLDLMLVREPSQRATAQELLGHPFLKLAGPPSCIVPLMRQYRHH

For the compound `CN1CCN(c2ccc(Nc3nccc(-c4cnn5ncccc45)n3)cc2C#N)CC1` [Compound 1], the inhibition at 10 µM is 100% at JAK1(JH2) (setting [1]); over 99% at CDK5 (setting [2]); 99.5% at CDK5 (setting [3]); 99.9% on TTK (setting [4]); 100% on KIT (setting [5]); 99.9% on FLT1. The inhibition at 10 µM on EGFR (setting [6]) is 0%; at ROS1, 91.9%; at PAK7/PAK5, 99.2%; at PKMYT1 it was 0%; on STK16 it was 100%.

Turning to `COc1ccc(Nc2nccc(-c3cnn4ncccc34)n2)cc1` [Compound 2], the inhibition at 10 µM at JAK1(JH2) (setting [1]) is 95.5%; on CDK5 (setting [2]), over 99%; at CDK5 (setting [3]), 99.8%; on TTK (setting [4]), 100%; on KIT (setting [5]) it was 100%; at FLT1 it was 99.5%. Also, the inhibition at 10 µM on EGFR (setting [6]) was 0%; on ROS1 it was 90.3%; at PAK7/PAK5 it was 72.8%; on PKMYT1 it was 0%; at STK16, 99.7%.

Take `Cc1ccc(O)cc1Nc1ccnc(Nc2cccc(C(N)=O)c2)n1` [Compound 3]: the inhibition at 10 µM at JAK1(JH2) (setting [1]) worked out at 0%; on CDK5 (setting [3]), 0%; at TTK (setting [4]), 98.7%; on KIT (setting [5]), 100%; at FLT1 it was 98.3%; at EGFR (setting [6]), 99%. Also, the inhibition at 10 µM worked out at 0% at ROS1, 67.6% at PAK7/PAK5, 97.9% on PKMYT1 and 99.9% on STK16.

On to `Cc1ccc(O)cc1N(C)c1ccnc(Nc2cccc(S(N)(=O)=O)c2)n1` [Compound 4], for which the inhibition at 10 µM on JAK1(JH2) (setting [1]) was found to be 0%; on CDK5 (setting [3]) it was 0%; at TTK (setting [4]), 91.8%; on KIT (setting [5]), 100%; on FLT1, 99.4%; on EGFR (setting [6]), 95.8%. Moreover, the inhibition at 10 µM on ROS1 was found to be 90%; at PAK7/PAK5 it was 98.5%; at PKMYT1, 100%; on STK16 it was 99.8%.

`Fc1cccc(COc2ccc(Nc3ncnc4c3CN(CCN3CCOCC3)CC4)cc2Cl)c1` [Compound 6]: the inhibition at 10 µM on JAK1(JH2) (setting [1]) was 0%; on CDK5 (setting [3]) it was 0%; at TTK (setting [4]), 0%; on KIT (setting [5]), 0%; at FLT1, 0%; at EGFR (10 μM, n = 1, read-out: percent inhibition EGFR), over 99%. The inhibition at 10 µM at EGFR (setting [6]) is 99.9%; at ROS1 it was 0%; on PAK7/PAK5, 0%; at PKMYT1, 0%; at STK16, 0%.

Take `COc1cc(Nc2nccc(-c3sc(N)nc3-c3cccc(NC(=O)c4c(F)cccc4F)c3)n2)cc(OC)c1OC` [Compound 7]: the inhibition at 10 µM at JAK1(JH2) (setting [1]) worked out at 0%; at CDK5 (setting [3]), 0%; at TTK (setting [4]) it was 99.2%; at KIT (setting [5]) it was 100%; on FLT1, 99.2%; at EGFR (setting [6]) it was 100%. In addition, the inhibition at 10 µM on ROS1 turned out to be 80.6%; on PAK7/PAK5 it was 89.4%; at PKMYT1, 0%; at STK16, 98.7%.

Turning to `C[C@@H](Oc1cc(-c2cnc3ccccn23)sc1C(N)=O)c1ccccc1Cl` [Compound 8], the inhibition at 10 µM at JAK1(JH2) (setting [1]) stood at 87.8%; on CDK5 (setting [3]) it was 0%; on TTK (setting [4]), 69.8%; at KIT (setting [5]), 0%; at FLT1, 70%; at EGFR (setting [6]) it was 0%. For the same compound, the inhibition at 10 µM on ROS1 was 0%; on PAK7/PAK5, 0%; on PKMYT1 it was 81.5%; on STK16 it was 0%.

For the compound `c1ccc(COc2cccc(-c3ccnc4[nH]ccc34)c2)cc1` [Compound 9], the inhibition at 10 µM at JAK1(JH2) (setting [1]), at CDK5 (setting [3]), at TTK (setting [4]), on KIT (setting [5]), on FLT1 and at EGFR (setting [6]) was 0% each time. Also, the inhibition at 10 µM at ROS1, on PAK7/PAK5, at PKMYT1 and on STK16 was 0% each time.

In the case of `Clc1ccc(Nc2ncc(-c3ccccc3)s2)cc1` [Compound 10], the inhibition at 10 µM on JAK1(JH2) (setting [1]) was 0%; at CDK5 (setting [3]), 0%; on TTK (setting [4]), 0%; on KIT (setting [7]), over 99%; on KIT (setting [5]), 99%; on FLT1 it was 0%. The inhibition at 10 µM on EGFR (setting [6]), at ROS1, at PAK7/PAK5, at PKMYT1 and at STK16 was 0% throughout. Moreover, the “inhibition of FLT1, in words” value on FLT1 (kinome profiling, 10 μM) is “relatively weak inhibition”.

Consider `Nc1ncc2c(-c3ccncc3)c[nH]c2n1` [Compound 11], for which the inhibition at 10 µM on JAK1(JH2) (10 μM, n = 1, read-out: percent inhibition JAK1(JH2)) was at least 99%; on JAK1(JH2) (setting [1]), 99%; on CDK5 (setting [3]), 0%; on TTK (10 μM, n = 1, read-out: percent inhibition TTK) it was at least 99%; at TTK (setting [4]) it was 99.5%; at KIT (setting [7]), at least 99%. Besides, the inhibition at 10 µM is 99.3% on KIT (setting [5]); 0% on FLT1; 0% on EGFR (setting [6]); 0% at ROS1; 77.1% at PAK7/PAK5; 0% on PKMYT1. The inhibition at 10 µM at STK16 came out at 0%.
